Tests used:
[1] = system: Beta7null mice; assay: Metabolic studies, Beta7null mice on HFD 5-ASA; type: in vivo; conditions: HFD vs HFD 5-ASA, 12 weeks
Method: Mice. Mice were fed either NCD (15 kcal % fat) or HFD (Research Diets, 60 kcal % fat, irradiated) starting at 6 weeks of age. All studies were performed under the approval of Animal User Protocols by the Animal Care Committee at the University Health Network. Mice were maintained in a pathogen-free, temperature-controlled environment on a 12-hour light and dark cycle. All mice used in comparative studies were male, age-matched, and litter mates where possible.
We measured body weights, GTTs, ITTs, serum insulin, and fat cell diameter as previously described (Winer et al., 2009a). All GTTs were performed with a 1.5 g/kg glucose i.p. injection unless indicated otherwise.

[2] = system: NCD-fed C57BL/6 mice; assay: Metabolic studies, NCD or NCD 5-ASA; type: in vivo; conditions: NCD vs NCD 5-ASA 1500 mg/kg/day, 12 weeks
Method: Mice. Mice were fed either NCD (15 kcal % fat) or HFD (Research Diets, 60 kcal % fat, irradiated) starting at 6 weeks of age. […] Mice were maintained in a pathogen-free, temperature-controlled environment on a 12-hour light and dark cycle. All mice used in comparative studies were male, age-matched, and litter mates where possible. […] We measured body weights, GTTs, ITTs, serum insulin, and fat cell diameter as previously described (Winer et al., 2009a). All GTTs were performed with a 1.5 g/kg glucose i.p. injection unless indicated otherwise.

Nc1ccc(O)c(C(=O)O)c1 [5-ASA, 5-aminosalicylic acid]
IR [1]: no major effects
glucose tolerance [1]: no major effects
IR [2]: little or no difference
body weight [2]: little or no difference
fasting glucose [2]: little or no difference
glucose tolerance [2]: little or no difference

Reference: US20180193361A1, “GUT ANTI-INFLAMMATORY AGENTS FOR REGULATION OF HIGH BLOOD GLUCOSE LEVELS” (UNIVERSITY HEALTH NETWORK, priority 2015, published 2018)
